Assay results: patent US11629201B2, “PSMA-binding agents and uses thereof” (ITM Isotope Technologies Munich SE, priority 2017, dated 2023)
Where “and” joins values, the source holds several entries; their conditions need not be identical. Equal entries are not always repeated.

Legend:
[1] = test system: PSMA-positive PC-3 PIP cells; assay: Cell uptake and internalization in PSMA-positive PC-3 PIP cells; type: cell-based
mouse plasma proteins = assay: Ultrafiltration assay, binding to mouse plasma proteins; type: in vitro ADME
Protocol: Filter Assay. […] In addition, the radioligands were diluted in PBS (buffer solution without proteins) as a control experiment. Aliquots of the solutions were loaded onto an ultrafiltration device and centrifuged. The filtered activity was measured with a γ-counter and used for calculating the plasma protein-bound activity (retained on the filter membrane) as the percentage of total added activity. […] Statistical analysis (one-way ANOVA with Bonferroni's multiple comparison post-test) was performed using GraphPad Prism software, version 7. A p-value of <0.05 was considered statistically significant.

human plasma proteins = assay: Ultrafiltration assay, binding to human plasma proteins; settings: human plasma, ultrafiltration
Protocol: Therefore, the compounds were labeled with ^177Lu at a specific activity of 50 MBq/nmol and incubated in human plasma samples or PBS at room temperature. The free and plasma-bound fractions were separated using a centrifree ultrafiltration device (4104 centrifugal filter units [Millipore]; 30000 Da nominal molecular weight limit, methylcellulose micropartition membranes). The incubated solution was loaded to the ultrafiltration device and centrifuged at 2500 rpm for 40 min at 20° C. Samples from the filtrate were taken an analyzed for radioactivity in a gamma-counter. The amount of plasma-bound compound was calculated as the fraction of radioactivity measured in the filtrate relative to the corresponding loading solution (set to 100%).
Determination of Albumin-binding Properties. The binding of the radioligands to human plasma proteins was determined by an ultrafiltration assay. […] Three independent experiments were performed in duplicates with both radioligands and the data was fitted to a semi-logarithmic plot (non-linear regression, one-site, specific binding) to obtain the half maximum binding (B50) in GraphPad Prism software (version 7).
The ^177Lu-labeled PSMA ligands (50 MBq/nmol) were diluted in mouse plasma (Rockland, USA) and human plasma (Stiftung Blutspende SRK Aargau-Solothurn, Switzerland), respectively, and incubated for 15 min at room temperature. In addition, the radioligands were diluted in PBS (buffer solution without proteins) as a control experiment. Aliquots of the solutions were loaded onto an ultrafiltration device and centrifuged. The filtered activity was measured with a γ-counter and used for calculating the plasma protein-bound activity (retained on the filter membrane) as the percentage of total added activity. […] Statistical analysis (one-way ANOVA with Bonferroni's multiple comparison post-test) was performed using GraphPad Prism software, version 7. A p-value of <0.05 was considered statistically significant.

[2] = test system: PC-3 PIP/flu tumor-bearing mice; assay: Biodistribution studies in PC-3 PIP/flu tumor-bearing mice; settings: for Tumor-to-blood / Tumor-to-kidney / Tumor-to-liver: PC-3 PIP tumor
[3] = non-decay-corrected biodistribution data up to 192 h p.i.

O=C(O)CCC(NC(=O)NC(CCCCNC(=O)C(Cc1ccc2ccccc2c1)NC(=O)C1CCC(CNC(=O)C(CCCCNC(=O)CN2CCN(CC(=O)O)CCN(CC(=O)O)CCN(CC(=O)O)CC2)NC(=O)CC(NC(=O)CC(NC(=O)CC(NC(=O)CCCc2ccc(I)cc2)C(=O)O)C(=O)O)C(=O)O)CC1)C(=O)O)C(=O)O (stereo not shown) [^177Lu-PSMA-ALB-07, metal not drawn]
cell uptake ([1]; 2 h): 52-57% | internalized fraction ([1]; 2 h): 18-24% | cell uptake ([1]; 4 h): 60-63% | internalized fraction ([1]; 4 h): 20-26% | plasma protein-bound fraction (mouse plasma proteins): 64±2.1% | plasma protein-bound fraction (human plasma proteins): 95±0.1% | Blood ([2]; 4 h p.i.): 6.67 ± 2.04 % IA/g | Bone ([2]; 4 h p.i.): 1.30 ± 0.27 % IA/g | Heart ([2]; 4 h p.i.): 2.43 ± 0.78 % IA/g | Intestines ([2]; 4 h p.i.): 1.27 ± 0.45 % IA/g | Kidneys ([2]; 4 h p.i.): 67.0 ± 9.50 % IA/g | Liver ([2]; 4 h p.i.): 1.94 ± 1.02 % IA/g | Lung ([2]; 4 h p.i.): 4.67 ± 0.92 % IA/g | Muscle ([2]; 4 h p.i.): 0.78 ± 0.22 % IA/g | PC-3 PIP Tumor ([2]; 4 h p.i.): 63.5 ± 27.4 % IA/g | PC-3 flu Tumor ([2]; 4 h p.i.): 1.80 ± 0.27 % IA/g | Salivary glands ([2]; 4 h p.i.): 2.09 ± 0.50 % IA/g | Spleen ([2]; 4 h p.i.): 3.41 ± 1.46 % IA/g | Stomach ([2]; 4 h p.i.): 1.09 ± 0.30 % IA/g | Tumor-to-blood ([2]; 4 h p.i.): 9327 ± 1.75 | Tumor-to-kidney ([2]; 4 h p.i.): 0.88 ± 0.28 | Tumor-to-liver ([2]; 4 h p.i.): 33.6 ± 6.56 | Blood ([2]; 24 h p.i.): 0.79 ± 0.08 % IA/g | Bone ([2]; 24 h p.i.): 0.31 ± 0.10 % IA/g | Heart ([2]; 24 h p.i.): 0.40 ± 0.00 % IA/g | Intestines ([2]; 24 h p.i.): 0.20 ± 0.03 % IA/g | Kidneys ([2]; 24 h p.i.): 51.9 ± 6.34 % IA/g | Liver ([2]; 24 h p.i.): 0.52 ± 0.04 % IA/g | Lung ([2]; 24 h p.i.): 0.73 ± 0.06 % IA/g | Muscle ([2]; 24 h p.i.): 0.13 ± 0.01 % IA/g | PC-3 PIP Tumor ([2]; 24 h p.i.): 84.6 ± 14.2 % IA/g | PC-3 flu Tumor ([2]; 24 h p.i.): 0.80 ± 0.17 % IA/g | Salivary glands ([2]; 24 h p.i.): 0.43 ± 0.04 % IA/g | Spleen ([2]; 24 h p.i.): 1.14 ± 0.04 % IA/g | Stomach ([2]; 24 h p.i.): 0.18 ± 0.06 % IA/g | Tumor-to-blood ([2]; 24 h p.i.): 107 ± 12.2 and 107 ± 10 | Tumor-to-kidney ([2]; 24 h p.i.): 1.64 ± 0.29 and 1.6 ± 0.2 | Tumor-to-liver ([2]; 24 h p.i.): 162 ± 17.3 and 162 ± 14 | Tumor-to-blood ([2]; 48 h p.i.): 154 ± 7 | Tumor-to-kidney ([2]; 48 h p.i.): 2.3 ± 0.1 | Tumor-to-liver ([2]; 48 h p.i.): 131 ± 13 | Blood ([2]; 72 h p.i.): 0.40 ± 0.06 % IA/g | Bone ([2]; 72 h p.i.): 0.31 ± 0.06 % IA/g | Heart ([2]; 72 h p.i.): 0.21 ± 0.01 % IA/g | Intestines ([2]; 72 h p.i.): 0.10 ± 0.01 % IA/g | Kidneys ([2]; 72 h p.i.): 26.0 ± 1.58 % IA/g | Liver ([2]; 72 h p.i.): 0.44 ± 0.08 % IA/g | Lung ([2]; 72 h p.i.): 0.43 ± 0.02 % IA/g | Muscle ([2]; 72 h p.i.): 0.08 ± 0.01 % IA/g | PC-3 PIP Tumor ([2]; 72 h p.i.): 62.6 ± 6.35 % IA/g | PC-3 flu Tumor ([2]; 72 h p.i.): 0.43 ± 0.04 % IA/g | Salivary glands ([2]; 72 h p.i.): 0.21 ± 0.01 % IA/g | Spleen ([2]; 72 h p.i.): 0.49 ± 0.03 % IA/g | Stomach ([2]; 72 h p.i.): 0.10 ± 0.01 % IA/g | Tumor-to-blood ([2]; 72 h p.i.): 160 ± 37.0 | Tumor-to-kidney ([2]; 72 h p.i.): 2.41 ± 0.18 | Tumor-to-liver ([2]; 72 h p.i.): 147 ± 38.4 | AUC PC-3 PIP tumor [2, 3]: 7007 ± 459 % IA/g · h | AUC blood [2, 3]: 180 ± 7.2 % IA/g · h | AUC kidneys [2, 3]: 3395 ± 201 % IA/g · h | AUC liver [2, 3]: 72 ± 3.6 % IA/g · h | Ratio of AUCs AUCTu-to-AUCBl ([2]; tumor to blood): 39 | Ratio of AUCs AUC-Tu-to-AUC-Ki ([2]; tumor to kidneys): 2.1 | Ratio of AUCs AUCTu-to-AUCLi ([2]; tumor to liver): 97
